Measurements taken from patent US8389680B2, “Treatment of Aspergillus infections with alpha thymosin peptides” (SciClone Pharmaceuticals, Inc., priority 2003, dated 2013).

Legend:
[1] = system: human MDC and PDC subsets; assay: Activation of human MDC and PDC subsets: phagocytosis, phenotype, cytokine release; type: cell-based; conditions: in response to conidia
Procedure: Blood CD 11c^+ myeloid DCs (MDCs) were generated from CD 14^+ mononuclear cells by magnetic cell sorting and cultured for 5 days in Iscove's modified medium, containing 10% fetal bovine serum, 50 micromolar 2-mercaptoethanol, sodium pyruvate (1 mM), 2 mM L-glutamine, HEPES (10 mM), and 50 micrograms/ml gentamycin in the presence of 50 ng/ml rHuman GM-CSF and 200 U/ml rHuman IL-4. Immature MDCs were cultured for 24 hours with 1000 ng/ml trimeric human CD40 ligand-leucine-zipper fusion protein to obtain mature DCs. CD 123^+ plasmacytoid DCs (PDCs) were isolated using the BDCA-4 isolation kit. Purity of CD 123^+ cells was >96%. For mature PDCs, immature DCs were cultured with the trimeric human CD40 ligand as above and 10 ng/ml IL-3. […] The expression of HLA Class II, CD80 and CD86 was high in both immature and mature DCs. Murine lung CD 11c^+ DCs (between 5 to 7% positive for CD8alpha and between 30 to 35% positive for Gr-1) were isolated by magnetic cell sorting. For phagocytosis, DCs were pre-exposed to 100 ng/ml TA1 for 60 minutes and subsequently incubated at 37° C. with Aspergillus conidia for an additional 60 minutes. The percentage of internalization was calculated and photographs were taken. In assessing functional maturation and cytokine determination, purified DCs were resuspended in Iscove's medium (with no serum but with polymixin B, to avoid non-specific activation by serum components and endotoxin) and pulsed with 100 ng/ml TA1 for 24 hours either alone or together with TLR ligands or unopsonized Aspergillus conidia. Cell surface phenotype was assessed by reacting samples with FITC- or PE-conjugated rat anti-mouse antibodies. Unrelated hisotype matched antibodies were used as control. The levels of TNF-alpha, IL-10, IL-12 p70, IFN-alpha and IL-8 in culture supernatants were determined by Kit ELISAs. The detection limits (pg/ml) of the assays were <3 (human) and <32 (murine) for TNF-alpha, <12 (murine) and <5 (human) for IL-10, <16 (murine) and <3 (human) for IL-12 p70 and <25 (human) IL-8. For human IFN-alpha <3 ng/ml. For enumeration of cytokine-producing cells, an ELISPOT assay was used on purified CD4^+ T cells and DCs from lungs.

murine DCs = assay: RT-PCR of TLR expression on DCs; type: cell-based
Procedure: Synthesis and PCR of cDNA were performed with forward and reverse PCR primers and the cycles used for murine and human TLRs and HPRT. The synthesized PCR products were separated by electrophoresis on 2% agarose gel and visualized by ethidium bromide staining.

p38 and NF-kB = assay: Analysis of p38 and NF-kB activation on lung DCs; type: cell-based, murine
Procedure: P38 and NF-kB were activated on lung DCs by exposure for 20 minutes at 37° C. to Aspergillus conidia and/or 100 ng/ml TA1. Blots of cell lysates were incubated with rabbit polyclonal Abs recognizing either the unphosphorylated form of p38 MAPK, or the double-phosphorylated (Thr-180/Tyr-182) p38 MAPK, or Abs specific for the Rel A, 65 kDa DNA binding subunit of human NF-kB followed by horseradish peroxidase-conjugated goat anti-rabbit IgG, as per manufacturer's instructions. Blots were developed with an Enhanced Chemiluminescence detection kit. Bands were visualized after exposure of the blots to a Kodak RX film. To ensure similar protein loading in each lane, the phospho blots were stripped and the membranes were reprobed with Abs against p38 and NF-kB.

A. fumigatus = assay: BMT mice with invasive aspergillosis: survival, fungal growth in lungs (chitin assay), lung histology; type: in vivo; conditions: G-CSF 250 microgram/kg intravenously
From the text: For infection with A. fumigatus, mice were intranasally injected for 3 consecutive days with a suspension of 2×10^7 conidia/20 microliter saline. For the quantification of fungal growth in the lungs, the chitin assay was used. The chitin content was expressed as micrograms of glucosamine per organ. The glucosamine content of lungs from uninfected mice was used as a negative control ranging between 0.80 and 2.25 microgram glucosamine/organ. For histological analysis, lungs were excised and immediately fixed in formalin. Sections (3 to 4 micron) of paraffin-embedded tissues were stained with the periodic acid-Schiff procedure. Thymosin alpha 1 (TA1) and the scrambled polypeptide are as purified sterile lyophilized acetylated polypeptides with endotoxin levels less than 0.03 pg/ml, by a standard limulus lysate assay. The sequences were as follows: Ac-[…]O (Thymosin alpha 1, SEQ ID NO.: 1) and Ac-[…]OH ([…]). Their lyophilized powders were reconstituted in sterile water.
The treatments were as follows; in BMT-mice, TA1, at different doses administered intraperitoneally, sthymosin alpha 1, 400 microgram/kg administered intraperitoneally or human recombinant G-CSF 250 microgram/kg administered intravenously, were given daily beginning the day of the BM infusion, in concomitance with the infection and continuing for an additional 3 days. Amphotericin B was given daily for 3 days in concomitance with the infection, at a dose of 4000 microgram/kg, administered intraperitoneally. This dose would cure IA in cyclophosphamide-treated mice. Cyclophosphamide, 150 mg/kg administered intraperitoneally, was given a day before the infection. In cyclophosphamide-treated mice, 400 microgram/kg TA1 was given intraperitoneally for 5 consecutive days beginning the day of the infection.
C57BL6 mice were exposed to a lethal dose of 9 Gy and infused with T cell-depleted donor cells from BALB/c mice.

[2] = combined exposure to conidia and peptide

Molecule: Ac-Ala-Lys-Ser-Asp-Val-Lys-Ala-Glu-Thr-Ser-Ser-Glu-Ile-Asp-Thr-Thr-Glu-Leu-Asp-Glu-Lys-Val-Glu-Val-Lys-Ala-Asn-Glu-OH (Ac-AKSDVKAETSSEIDTTELDEKVEVKANE-OH) [scrambled peptide]
- HLA Class II antigens and costimulatory molecule expression [1]: failed to up-regulate
- cytokine production by DCs [1]: failed
- expression of TLR2 (murine DCs; [2]): failed to activate
- expression of TLR9 (murine DCs; [2]): failed to activate
- expression of TLR2 (murine DCs; peptide alone): failed to activate
- expression of TLR9 (murine DCs; peptide alone): failed to activate
- p38 phosphorylation (p38 and NF-kB; peptide alone, 20 minutes): not stimulated
- p38 phosphorylation (p38 and NF-kB; scrambled peptide plus conidia): not stimulated

Molecule: Oc1ccc(-c2nc(-c3ccncc3)c(-c3ccc(F)cc3)[nH]2)cc1 [SB202190]
- effect of inhibitor on the effect of TA1 on DCs (p38 and NF-kB; inhibitor given with TA1): ablate the effect of TA1 on DCs

B1: G-CSF: human recombinant G-CSF, known to accelerate neutrophil recovery in mice (protein, UniProt P09919 31-207, looked up)
Granulocyte …: TPLGPASSLPQSFLLKCLEQVRKIQGDGAALQEKLVSECATYKLCHPEELVLLGHSLGIPWAPLSSCPSQALQLAGCLSQLHSGLFLYQGLLQALEGISPELGPTLDTLQLDVADFATTIWQQMEELGMAPALQPTQGAMPAFASAFQRRAGGVLVASHLQSFLEVSYRVLRHLAQP
- antifungal resistance by recovery from neutropenia alone, compared with TA1 (A. fumigatus): not sufficient
